Measurements taken from US12076331B2, “Inositol derivatives for use in pathological crystallization” (ETH Zurich, priority 2015, dated 2024).
“Also recorded” adds a separate entry of the source.

How the values were obtained:
[1] = In-solution screening of CaP precipitation and aggregation in artificial renal tubular fluid (RTF); assay type: physicochemical; settings: 9 mM phosphate, 8 mM calcium, 4 h
Method: (§1) Effects of (A) OEG2-IP5, (B) OEG11-IP5, (C) (OEG2)2-IP4, (D) (OEG11)2-IP4 and (E) OEG8-(IP5)2. on CaP precipitation in RTF spiked with 9 mM disodium phosphate and 8 mM calcium chloride were assessed by light microscopy followed by automated image analysis at t=4 h. Quantification of the total area covered with CaP precipitates/total area field of view (N=3, mean+SD, normalized to the control).
as §1, with “mean size of aggregates/field” for “total area covered with CaP precipitates/total area field”, “view normalized to the ctrl” for “view”
Overview table showing the minimal concentration of compound (FIG. 3 for the chemical structures) required to achieve complete inhibition of CaP precipitation (total area covered with crystals <10% of total area control); and minimal concentration required to prevent CaP crystal aggregation in the CaP screening assay (CaP aggregate size <50% of aggregate size control) (N=3).
An artificial renal tubular fluid (RTF) with a final composition of 0.05 mM oxalate, 0.005 mM sulphate, 408 mM sodium, 424 mM chloride, 0.26 mM potassium, 4 mM magnesium and 0.2 mM citrate in double distilled water was prepared according to a literature report (Fasano, J. M. et al., Kidney Int. 59, 169-178. DOI: 10.1046/j. 1523-1755.2001.00477.x, 2001). The solution was filtered with a 0.45-μm syringe filter. Twenty mM Bis-Tris buffer was added to the reported protocol to ensure pH stability throughout experiments and pH was set to 7.2. The artificial RTF was stored at room temperature for up to four months. Stock solutions of 0.25 M phosphate and 1 M calcium were prepared in double distilled water and were stored separately at −20° C.
Twenty-x final concentration phosphate, 20× final concentration calcium and 10× final concentration compound dilutions were prepared in RTF. Assay mixture consisting of 80% RTF, 10% compound dilution, 5% phosphate dilution and 5% calcium dilution was prepared in Eppendorf tubes as follows. RTF (320 μL) was mixed with 20 μL phosphate dilution (final concentration of 9 mM), 40 μL compound dilution and 20 μL calcium dilution (final concentration of 8 mM). The assay mixture was vortexed after adding each component and 380 μL of the mixture were immediately added to 8-well glass bottom slides and incubated for 4 hat RT. CaP precipitation was assessed using a Leica DM 6000B microscope (Leica Microsystems, Wetzlar, Germany) in brightfield mode. For quantification 3 wells/condition with 3-4 images/well were imaged with a 40× objective. The total area covered with CaP deposits in percentage of the field of view and the mean size of CaP aggregates were determined.
In a first step, the influence of selected IP6 analogues (FIG. 5) on CaP precipitation and growth was assessed in vitro using artificial renal tubular fluid (RTF) (Table 1). In a previous study, the inventors investigated CaP protein particle formation in serum. However, an important difference to cardiovascular calcification lies in the extremely low protein content of the renal tubular fluid vs. the high abundance of proteins in blood, which can stabilize amorphous particles. Two cut-offs were chosen for assessing efficacy. First, complete inhibition was defined as a >90% reduction of detected CaP precipitates compared to the control sample without compound. Second, inhibition of CaP aggregation was defined as a >50% reduction of the mean size of aggregates when compared to the control.

[2] = system: RPTEC/TERT 1 human proximal tubule cells; experiment: Imaging assay of CaP adhesion/deposition and cellular changes on RPTEC monolayers; assay type: cell-based; settings: RPTEC, 7 mM phosphate, 5 mM calcium, 24 h
Description: (A) Heatmap and hierarchical clustering of extracted image features. (B) Selected single features describing cellular changes upon increasing (OEG2)2-IP4 concentrations are depicted. Total cell count, dead cell count, single cell area and single cell solidity, a measure of cell compactness, are shown. (C) Selected single features describing changes in the CaP deposition and membrane pattern upon increasing (OEG2)2-IP4 concentrations are depicted. The total area of the binary calcein staining, colorimetric quantification of calcium content extracted from the monolayer, the maximum intensity of the calcein fluorescence, structural similarity index metric (SSIM) and the correlation of the CellMask channel image are shown. (D) Example brightfield, calcein, CellMask and EthD channel images and two zoomed-in regions of interests (ROI) of RPTEC treated with 13 μM (OEG2)2-IP4 are shown. Mean scaled values per individual experiment are plotted (N=3). Pos.ctrl presents treatment with 5/7 mM Ca/P, neg.ctrl presents medium without Ca/P spiking (=1/1 mM Ca/P present in normal cell medium). Mean of three individual experiments and SD is plotted as grey horizontal and vertical line respectively, one-way ANOVA with Dunnet's multiple comparison between each concentration to pos. ctrl was performed (* p<0.01).
RPTEC/TERT 1 monolayers at confluence were treated with medium spiked with 7 mM disodium phosphate, 5 mM calcium chloride and compound and were incubated for 24 h. The amount of CaP deposits and the extent of cell injury were detected by calcein and EthD staining, respectively. Fluorescence images were quantified using Matlab. Quantification of the area covered with CaP deposition on RPTEC monolayers with (A) OEG2-IP5, (B) OEG11-IP5, (C) (OEG2)2-IP4, and (D) OEG8-(IP5)2 treatment. (N=3, mean+SD, one-way ANOVA with Dunnett's multiple comparison, * p<0.05, ** p<0.01, *** p<0.001).
RPTEC/TERT 1 human proximal tubule cells (RPTEC) were cultured in T75 tissue culture flasks using ProxUp basal medium mixed with ProxUp supplements at 37° C. and 5% CO2 according to manufacturer's recommendations. Cells were used up to passage 30 and regularly tested for Mycoplasma infections. For experiments, RPTEC were cultured in 24-well plates at a seeding density of 150′000 cells/cm^2. Cell viability assessment and cell counting before seeding was performed using an automated cell counter (BioRad TC 20, Hercules, CA, USA).
For the comparison of selected IP6 analogues, ProxUp basal medium was prepared with the selected inhibitor and added to each well. Then, CaP precipitation was induced by direct addition of first, phosphate and second, calcium. Final concentrations of 7 mM phosphate and 5 mM calcium were used. Cells were incubated for 24 h at 37° C. and 5% CO2. Spiked medium was removed, and cells were washed twice with PBS before staining.
For staining, ProxUp basal medium was mixed with calcein (500 nM final concentration), EthD (6 μM final concentration), CellMask stain ([…]) and Hoechst 33342. Staining mixture was added to RPTEC and cells were incubated for 30 min in the dark at 37° C. and 5% CO2. Staining solution was removed, cells were washed with PBS once and ProxUp basal medium was added. Cells were immediately imaged after staining. Images were obtained by epifluorescence microscopy at 37° C., using a Leica CTR6000 microscope. For quantification 3 wells/condition were prepared and 3 images/well were taken. For preliminary adhesion experiments images were taken with a 10× objective, for the imaging assay 20× objective images were taken.
Multichannel images were saved as individual channel images in 8-bit tiff format. For analysis Hoechst channel images were thresholded using the triangle threshold. Touching nuclei of the binary image were further segmented using the watershed algorithm with the distance transform of the binary image as input and local maxima thereof as seeds. […]

[3] = system: transition of primary CPPs to secondary CPPs; experiment: calciprotein particle (CPP) maturation time in human serum (Pasch test, FIG. 1); settings: human pooled serum, 37° C., nephelometer up to 600 minutes
Description: The y-axis indicates the half-maximal transition time (T50) in minutes of primary CPPs to secondary CPPs. IP6: myo-inositol hexakisphosphate (Biosynth); IS6: myo-inositol hexakissulfate (Sigma); IP2S4: 4,6-di-(O-phosphate)-myo-inositol 1,2,3,5-tetra-O-sulfate; IT2S4: 4,6-di-(O-thiophosphate)-myo-inositol 1,2,3,5-tetra-O-sulfate; IP5-PEG: 2-PEG(2000)-myo-inositol pentakisphosphate.
(§2) The inventors performed an in vitro assay that measures the propensity for calcification of human serum and has been clinically validated as a predictor of all-cause mortality in CKD patients and renal transplant recipients (as described in Pasch, Journal of the American
Society of Nephrology 23, 1744-1752, 2012). The experiment was carried out by mixing a calcium solution, human pooled serum, the test compound at the final concentration indicated and a phosphate solution, and the transition time of primary to secondary CPPs was measured at 37° C. using a nephelometer for up to 600 minutes.

[4] = system: transition of primary CPPs to secondary CPPs; experiment: CPP maturation time in human serum, similar test with test compounds added last (FIG. 2); settings: test compounds added to the reaction mixture last
Method: as §2
Society of Nephrology 23, 1744-1752, 2012). […], and the transition time of primary to secondary CPPs was measured at 37° C. using a nephelometer for up to 600 minutes.

Q: Which results are given for `COCCOCCO[C@@H]1[C@@H](OP(=O)(O)O)[C@H](OP(=O)(O)O)[C@@H](OP(=O)(O)O)[C@@H](OP(=O)(O)O)[C@H]1OP(=O)(O)O` [OEG2-IP5]?
A: concentration for complete inhibition of CaP precipitation (>90% reduction of CaP precipitates vs control) [1]: 30 µM; concentration for inhibition of CaP aggregation (>50% reduction of mean size of aggregates vs control) [1]: 1 µM; concentration achieving complete inhibition of CaP adhesion [2]: 50 µM

Q: For `O=P(O)(O)OC1C(OS(=O)(=O)O)C(OP(=O)(O)O)C(OS(=O)(=O)O)C(OS(=O)(=O)O)C1OS(=O)(=O)O` (stereo not shown) [IP2S4, 4,6-di-(O-phosphate)-myo-inositol 1,2,3,5-tetra-O-sulfate], which “activity on half-maximal transition time (T50) of primary CPPs to secondary CPPs” value (“activity on half-maximal transition time” for short) [3] is on record?
A: The value was “more active than IP6”.

Q: Which concentration at which CaP precipitation was promoted [1] does the source give for `O=P(O)(O)OC1[C@@H](OP(=O)(O)O)[C@H](OP(=O)(O)O)C(O)[C@H](OP(=O)(O)O)[C@H]1OP(=O)(O)O` (stereo partly shown) [IP5, myo-inositol pentakisphosphate, reference compound] here?
A: The concentration at which CaP precipitation was promoted was 30 µM.

Q: For `O=P(O)(O)O[C@H]1[C@H](OP(=O)(O)O)[C@@H](OP(=O)(O)O)[C@H](OP(=O)(O)O)[C@@H](OP(=O)(O)O)[C@H]1OP(=O)(O)O` [IP6, myo-inositol hexakisphosphate, reference compound], which concentration at which CaP precipitation was promoted [1] is on record?
A: The concentration at which CaP precipitation was promoted was 10 µM.

Q: With “cyclohexane hexacarboxylic acid [IC6, reference compound]” as the compound, how does the “effect on CaP precipitation/crystallization in words” value [1] read?
A: Its value is “weak inhibitory properties”.

Q: With `COCCOCCO[C@@H]1C(OP(=O)(O)O)[C@H](OCCOCCOC)[C@@H](OP(=O)(O)O)C(OP(=O)(O)O)[C@H]1OP(=O)(O)O` (stereo partly shown) [INS-3001] as the compound, how does the “activity on transition time of primary to secondary CPPs” value [4] read?
A: The value was “more active than IP6; also recorded: more active than the compounds having one PEG moiety”.

Q: For `O=S(=O)(O)O[C@@H]1[C@@H](OP(O)(O)=S)[C@H](OS(=O)(=O)O)[C@H](OS(=O)(=O)O)[C@H](OS(=O)(=O)O)[C@H]1OP(O)(O)=S` [IT2S4, 4,6-di-(O-thiophosphate)-myo-inositol 1,2,3,5-tetra-O-sulfate], which “activity on half-maximal transition time” value [3] is on record?
A: Its value is “more active than IP6”.

Q: With `O=S(=O)(O)OC1C(OS(=O)(=O)O)C(OS(=O)(=O)O)C(OS(=O)(=O)O)C(OS(=O)(=O)O)C1OS(=O)(=O)O` (stereo not shown) [IS6, myo-inositol hexakissulfate, reference compound] as the compound, how does the “effect on CaP precipitation/crystallization in words” value [1] read?
A: The value was “weak inhibitory properties”.

Q: For `COCCOCCOCCOCCOCCOCCOCCOCCOCCOCCOCCO[C@@H]1[C@@H](OP(=O)(O)O)[C@H](OP(=O)(O)O)[C@@H](OP(=O)(O)O)[C@@H](OP(=O)(O)O)[C@H]1OP(=O)(O)O` [OEG11-IP5], which aggregation inhibitory concentration [1] is on record?
A: Its aggregation inhibitory concentration is 300 nM.

Q: And the “concentration achieving complete inhibition of CaP adhesion” value [2]?
A: The value was 50 µM.

Q: With “2-PEG(2000)-myo-inositol pentakisphosphate [Compound 2-PEG-IP5]” as the compound, how does the “activity on half-maximal transition time” value [3] read?
A: The value was “far more active than any other compound”.
